Data taken from patent US10266489B2, “Pyrrolic amide compound and preparation method and application thereof” (HitGen LTD, priority 2014, dated 2019).

Legend:
[1] = biological target: T1, histone deacetylase 6 (HDAC6) (Homo sapiens, UniProt Q9UBN7); test: Detection of enzyme viability of histone deacetylase 6 (fluorogenic substrate deacetylation); format: biochemical; details: 0.35 ng/μL HDAC 6, 20 μM substrate, 37° C.
T1 construct: purchased BPS Bioscience 50076
T1 sequence (Q9UBN7 1-1215): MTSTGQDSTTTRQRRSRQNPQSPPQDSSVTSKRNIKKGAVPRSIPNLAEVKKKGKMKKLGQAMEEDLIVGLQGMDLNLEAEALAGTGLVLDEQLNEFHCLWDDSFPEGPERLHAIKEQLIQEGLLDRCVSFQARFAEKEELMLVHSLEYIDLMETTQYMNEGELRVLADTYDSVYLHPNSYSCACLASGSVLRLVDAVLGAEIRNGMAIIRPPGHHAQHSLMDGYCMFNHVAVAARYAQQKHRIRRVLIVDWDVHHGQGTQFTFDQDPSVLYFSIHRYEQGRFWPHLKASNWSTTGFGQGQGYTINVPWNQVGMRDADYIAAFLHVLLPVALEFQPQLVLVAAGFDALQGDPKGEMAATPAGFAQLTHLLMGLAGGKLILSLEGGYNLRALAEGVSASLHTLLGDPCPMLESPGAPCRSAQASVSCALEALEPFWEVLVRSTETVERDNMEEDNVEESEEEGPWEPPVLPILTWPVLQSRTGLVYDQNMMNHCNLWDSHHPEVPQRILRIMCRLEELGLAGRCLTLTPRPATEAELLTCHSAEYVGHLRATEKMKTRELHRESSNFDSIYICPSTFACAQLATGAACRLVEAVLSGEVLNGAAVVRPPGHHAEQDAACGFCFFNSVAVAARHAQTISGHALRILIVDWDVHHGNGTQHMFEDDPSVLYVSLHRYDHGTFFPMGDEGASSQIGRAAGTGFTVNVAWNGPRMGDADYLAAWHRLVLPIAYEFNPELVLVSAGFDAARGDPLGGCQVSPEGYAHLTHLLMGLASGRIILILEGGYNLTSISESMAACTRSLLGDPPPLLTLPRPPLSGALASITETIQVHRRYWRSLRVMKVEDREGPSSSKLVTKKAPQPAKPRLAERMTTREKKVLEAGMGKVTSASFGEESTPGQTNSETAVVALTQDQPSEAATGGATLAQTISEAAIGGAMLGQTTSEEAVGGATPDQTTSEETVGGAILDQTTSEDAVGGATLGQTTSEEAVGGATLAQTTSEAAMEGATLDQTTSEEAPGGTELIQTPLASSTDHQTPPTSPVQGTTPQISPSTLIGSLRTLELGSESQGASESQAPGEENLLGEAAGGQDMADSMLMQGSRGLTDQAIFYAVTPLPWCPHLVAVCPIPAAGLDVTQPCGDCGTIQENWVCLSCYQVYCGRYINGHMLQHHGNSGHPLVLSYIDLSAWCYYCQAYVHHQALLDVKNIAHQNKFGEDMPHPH
Source text: (§1) HDAC inhibitory viabilities of the compounds in the present invention are detected in detection of substrate deacetylation.
A: Detection of enzyme viability of histone deacetylase 6 (#50076, BPS Bioscience):
Acetyl of HDAC 6 on a substrate is removed, so that the substrate is activated and can be affected by a subsequently added developing solution, and fluorophore is released. The size of a fluorescence signal reflects the viability of the HDAC 6. An IC50 detection method of the enzyme is disclosed in Chuping Xu, Elisabetta Soragni improved Histone Deacetylase Inhibitors as Therapeutics for the Neurdegenerative DiseaseEriedreich's Ataxia: A New Synthetic Route. A total reaction system (100 μL/well) contains 0.35 ng/μL of HDAC 6, 20 μM of substrate and compounds of different concentrations. The fluorescence signal is measured within 30 minutes after incubation at a temperature of 37° C., inhibitory effects of the compounds are determined from the obtained data and mapped with the compound concentrations to obtain a concentration response curve, and the IC50 value is fitted according to a four-parameter model.
(§2) The compounds 1-19 prepared in the embodiments are subjected to detection of enzyme viability of histone deacetylase 6 (i.e., HDAC6) according to the method above. Test results are shown in Table 2, wherein the measured IC50 values of the compounds are classified as specified, as shown in Table 2: […]

[2] = biological target: T2, histone deacetylase 3 (HDAC3) (Homo sapiens, UniProt O15379); test: Detection of enzyme viability of histone deacetylase 3 (fluorogenic substrate deacetylation); format: biochemical; details: 0.16 ng/μL HDAC 3, 10 μM substrate
T2 construct: purchased BPS Bioscience 50003
T2 sequence (O15379 whole entry): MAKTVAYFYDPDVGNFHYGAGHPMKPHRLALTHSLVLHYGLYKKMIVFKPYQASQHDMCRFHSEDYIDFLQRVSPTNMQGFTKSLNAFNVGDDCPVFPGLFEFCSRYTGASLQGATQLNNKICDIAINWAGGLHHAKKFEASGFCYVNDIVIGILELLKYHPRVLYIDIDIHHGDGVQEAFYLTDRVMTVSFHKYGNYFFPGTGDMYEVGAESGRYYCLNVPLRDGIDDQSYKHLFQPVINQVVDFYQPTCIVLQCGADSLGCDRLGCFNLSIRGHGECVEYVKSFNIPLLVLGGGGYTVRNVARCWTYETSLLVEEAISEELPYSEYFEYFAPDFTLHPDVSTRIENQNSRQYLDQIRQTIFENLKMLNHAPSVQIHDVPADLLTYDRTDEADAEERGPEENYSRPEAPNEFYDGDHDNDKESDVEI
T2 sequence (Q9Y618 395-489 partner limits assumed): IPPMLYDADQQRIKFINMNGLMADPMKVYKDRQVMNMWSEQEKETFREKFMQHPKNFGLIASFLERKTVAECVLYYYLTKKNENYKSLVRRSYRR
Source text: as §1
B: Detection of enzyme viability of histone deacetylase 3 (#50003, BPS Bioscience):
Acetyl of HDAC 3 on a substrate is removed, so that the substrate is activated and can be affected by the developing solution, and fluorophore is released. The size of a fluorescence signal reflects the viability of the HDAC 3. An IC50 detection method of the enzyme is disclosed in Chuping Xu, Elisabetta Soraeni Improved Histone Deacetylase Inhibitors as Therapeutics for the Neurdegenerative DiseaseFriedreich's Ataxia: A New Synthetic Route. A total reaction system (100 μL/well) contains 0.16 ng/μL of HDAC 3, 10 μM of substrate and compounds of different concentrations. The fluorescence signal is detected at Ex/Em=360/460 on line, inhibitory effects of the compounds are determined from the obtained data and mapped with the compound concentrations to obtain a concentration response curve, and the IC50 value is fitted according to a four-parameter model.
as §2, with “3” for “6”, “HDAC3)” for “HDAC6)”

HepG2 cells = test: Determination of cell growth inhibition, CCK-8, HepG2; format: cell-based; details: Homo sapiens, HepG2 hepatoma cells, 72 hours, highest measured IC50 of single or multiple operations
Source text: (§3) Test example 2 Cell determination-determination of cell growth inhibition Materials and reagents HepG2 cell strains, Hep3B cell strains, Huh7 cell strains and Li7 cell strains are purchased from Shanghai Institutes for Biological Sciences of Chinese Academy of Sciences; DMEM high glucose media and MEM media are purchased from Hyclone; fetal calf serum is purchased from Gibco Company; trypsin is purchased from Invitrogen Shanghai; CCK-8 kits are purchased from Beyotime Institute of Biotechnology; and other consumables such as cell-culture dishes and the like are purchased from Corning China. […]
(§4) comprising the steps: digesting HepG2 cells, Hep3B Huh7 cells and Li7 cells in logarithmic phases by using the trypsin; after counting the cells by taking uniform cell suspension, adjusting cell density to 1500 cells/pore by using a culture medium containing 10% of serum, and re-inoculating into a 96-pore cell culture plate, wherein the culture volume is 200 μL; incubating in a 5% CO2 incubator at a temperature of 37° C.; and culturing for 24 hours for experiments. […]
(§5) comprising the steps: taking the cells cultured for 24 hours from the incubator, sucking culture solution in the pore plate, adding 200 μL of compound solution prepared by using a culture medium containing 10% of the fetal calf serum into each pore, enabling five pores of each concentration to be parallel, setting DMSO at negative control, and incubating in the 5% CO2 incubator at a temperature of 37° C. for 72 hours for performing CCK-8 detection. […]
(§6) comprising the steps: taking a serum-free medium and a CCK-8 solution, and preparing a CCK-8 working solution according to a ratio of 10:1 (the process needs to be protected from light); taking the cells cultured for 72 hours from the incubator, sucking culture solution in the pore plate, adding 120 μL of the CCK-8 working solution into each pore, adding 120 μL of the CCK-8 working solution into a cell-free pore plate to serve as blank control, and incubating in the 5% CO2 incubator at a temperature of 37° C. for one hour (the process needs to be protected from light ); and […]
(§7) taking the pore plate from the incubator, sucking 100 μL of solution from each pore into a new 96-pore plate, and reading absorbancy at 450 nm (the process needs to he protected from light).
(§8) Tx: absorbancy measured in CCK-8 within 72 hours after compound effect
(§9) C: absorbancy measured m CCK-8 within 72 hours after culturing in negative control pores B: absorbancy measured CCK-8 in blank control pores
(§10) The compounds 1-19 prepared in the embodiments are operated in the above determination, and test results are shown in Table 3, wherein the highest measured IC50 values of the various compounds during single or multiple operations are classified as specified, as shown in Table 3: […]

Huh7 cells = test: Determination of cell growth inhibition, CCK-8, Huh-7; format: cell-based; details: Homo sapiens, Huh-7 hepatoma cells, 72 hours, highest measured IC50 of single or multiple operations
Source text: as §3, §4, §5, §6, §7, §8, §9, §10

Li7 cells = test: Determination of cell growth inhibition, CCK-8, Li-7; format: cell-based; details: Li-7 hepatoma cells, 72 hours, highest measured IC50 of single or multiple operations
Source text: as §3, §4, §5, §6, §7, §8, §9, §10

Hep3B cells = test: Determination of cell growth inhibition, CCK-8, Hep3B; format: cell-based; details: Homo sapiens, Hep3B hepatoma cells, 72 hours, highest measured IC50 of single or multiple operations
Source text: as §3, §4, §5, §6, §7, §8, §9, §10

| SMILES | IC50 (HepG2 cells) | IC50 (Huh7 cells) | IC50 (Hep3B cells) | IC50 [1] | IC50 [2] | IC50 (Li7 cells) |
| --- | --- | --- | --- | --- | --- | --- |
| O=C(NO)C1=CCN(S(=O)(=O)c2ccccc2)C1 [Compound 2, N-hydroxy-1-(benzene-sulfonyl)-2,5-dihydro-1H-pyrrole-3-formamide] | > 10 µM | > 10 µM | > 10 µM | < 100 nM | > 1000 nM | > 10 µM |
| O=C(NO)C1=CCN(S(=O)(=O)c2ccc(Oc3ccccc3)cc2)C1 [Compound 3] | > 10 µM | > 10 µM | > 10 µM | 100 to 300 nM | 100 to 1000 nM | > 10 µM |
| CC(=O)Nc1ccc(S(=O)(=O)N2CC=C(C(=O)NO)C2)cc1Cl [Compound 4, N-hydroxy-1-((4-acetamido-3-chlorphenyl)sulfonyl)2,5-dihydro-1H-pyrro1e-3-formamide] | > 10 µM | > 10 µM | > 10 µM | < 100 nM | 100 to 1000 nM | > 10 µM |
| O=C(NO)C1=CCN(S(=O)(=O)c2ccc3c(c2)OCCO3)C1 [Compound 5, N-hydroxy-1-((2,3-dihydro-benzo[b] [1,4]dioxin)-6-sulfonyl)2,5-dihydro-1H-pyrrole-3-formamide] | > 10 µM | > 10 µM | > 10 µM | < 100 nM | > 1000 nM | > 10 µM |

Now from value to compound, other results behind:

| IC50 (HepG2 cells) | IC50 (Huh7 cells) | IC50 (Hep3B cells) | SMILES | IC50 [1] | IC50 [2] | IC50 (Li7 cells) |
| --- | --- | --- | --- | --- | --- | --- |
| > 10 µM | > 10 µM | > 10 µM | O=C(NO)C1=CCN(S(=O)(=O)c2ccc3c(c2)OCC3)C1 [Compound 6, N-hydroxy-1-((2,3-dihydro-benzofuran)-6-sulfonyl)2,5-dihydro-1H-pyrrole-3-formamide] | < 100 nM | 100 to 1000 nM | > 10 µM |
| > 10 µM | > 10 µM | > 10 µM | CC(C)(C)c1ccc(S(=O)(=O)N2CC=C(C(=O)NO)C2)cc1 [Compound 8] | < 100 nM | 100 to 1000 nM | > 10 µM |
